Test results: patent publication US8557804B2, “Nicotinic receptor agonists for the treatment of inflammatory diseases” (priority 2002, dated 2013)
“And” between values parts separate entries of the source, which are not always exact repeats. Identical values can stand only once.

Tests used:
[1] = system: SR-induced inflammation in mice; assay: Short term SR-induced acute lung inflammation in mice, BAL cells; format: in vivo
Text: (§1) The Intranasal instillation of Saccharopolyspora rectivirgula (SR) antigens, the causative agent for farmer's lung, to mice, induces a prominent inflammatory response in the lung. Neutrophils are the first inflammatory cells recruited at the site of inflammation.

TNF = TNF levels in BAL fluid of SR-instilled mice; format: in vivo; conditions: DMPP-treated mice, SR instillation
Text: as §1

[2] = system: CD86 expression on alveolar macrophages; assay: CD86 expression in SR-stimulated BAL cells of a normal patient; format: cell-based, human
Description: A broncho-alveolar lavage was performed on a normal patient, and alveolar macrophages were isolated.

[3] = system: collagen 1A mRNA expression by normal human lung fibroblasts; assay: Collagen A1 gene expression by RT-PCR in primary normal lung fibroblasts; format: cell-based; conditions: primary normal fibroblasts, RT-PCR
Description: Asthma is characterized by airway structural changes, including sub-epithelial collagen deposition, that may be a cause for the chronicity of the disease. An imbalance between collagen synthesis and its degradation by fibroblasts may be involved in this process (56). In preliminary experiments, we investigated the effects of nicotinic agonists on collagen A1 synthesis produced by primary normal fibroblasts. Collagen A1 gene expression was evaluated by RT-PCR.
The results are expressed percentage gene expression in agonists treated cells compared to non-treated cells.

[4] = system: IL-10 mRNA expression in AMJ2-C11 cells; assay: IL-10 mRNA expression by RT-PCR in AMJ2-C11 cells; format: cell-based, mouse; conditions: SR-stimulated 24 h, 80 μM
Description: (§2) The effect of nicotine or DMPP treatment on AMJ2-C11 cells was tested on TNF-α, IL-10 mRNA expression by RT-PCR. These cytokines are involved in the development of pulmonary inflammatory diseases such as HP, asthma and sarcoidosis (52-55). […] Reference is made to FIG. 3 where results are expressed as a % of expression, 100% being attributed to the LPS alone group. The intensity of the band was obtained by dividing the intensity of the TNF-α band by that of β-actin. […] Reference is made to FIG. 4 where results are expressed as described in FIG. 5.

IL-4 mRNA expression = IL-4 mRNA expression induced by a 24 h LPS stimulation; format: cell-based; conditions: LPS stimulation 24 h, 40 to 160 μM
Description: The effect of agonist treatment on mRNA expression of IL-4, a cytokine that is well known to be involved in the development of asthma, was also tested (53). […] Cells were treated with different doses (40 to 160 μM for both nicotine and DMPP).

[5] = system: TNF release by human blood monocytes; assay: cells; format: cell-based; conditions: 40 μM, mean of 5 subjects
Description: Human monocytes were isolated from the blood of asthmatic patients by Ficoll-paque density gradient, let to adhere to tissue culture plates and stimulated with LPS (100 ng/ml) for 18 hours at 37° C. with or without increasing concentrations of nicotine. The release of TNF, a potent pro-inflammatory mediator, was measured in the cell culture supernatant by the ELISA method. Results are expressed as a percentage release from LPS-stimulated untreated cells (FIG. 28).
Tumor necrosis factor (TNF) is a mediator released in inflammatory states.
Human blood monocytes were isolated by Ficoll-paque density gradient, let to adhere to tissue culture plates and stimulated with LPS (100 ng/ml) for 18 hours at 37° C. with or without increasing concentrations of nicotine analogues.

blood eosinophils = assay: Blood eosinophil transmigration through an artificial basement membrane (Matrigel coated chemotaxis chamber); format: cell-based; conditions: purified blood eosinophils, Matrigel
Text: Infiltration of eosinophils and other inflammatory cells into lung tissues is an important feature of asthma and the cause of airway inflammation and hyper-responsiveness. The passage of inflammatory cells from the circulation to the lung involves migration through the vascular endothelium, the basement membrane, and extra-cellular matrix components. Inflammatory cells cross the basement membrane by producing proteinases. In these preliminary in vitro experiments, the effects of various nicotinic agonists on the migration of purified blood eosinophils through an artificial basement membrane (Matrigel® coated chemotaxis chamber) were investigated. […] Results are expressed as a percentage of inhibition (agonists-treated cells) compared to the control condition without the agonists.

[6] = system: lung resistance after metacholine challenge; assay: Airway hyper-reactivity / lung resistance to metacholine in asthmatic mice (FlexiVENT); format: in vivo; conditions: 0.5 mg/kg intranasal DMPP
Description: Airway hyper-reactivity (AHR) in response to metacholine was measured in anesthetized, tracheotomized, ventilated mice using a computer-controlled ventilator (FlexiVENT™).
Increasing doses of metacholine (0 mg/kg-32.5 mg/kg) were administered through the jugular vein.
Lung response to a broncho-constrictive agent, metacholine, was measured by a Flexi-vent® apparatus. Ovalbumin-sensitized animals were treated intra-nasally with ASM-002 (4 mg/kg) during 3 days and 10 minutes prior to the metacholine challenge and compared to untreated OVA-sensitized animals. A negative control group of un-sensitized animals and a positive control group that received Salbutamol (Ventolin) 10 minutes before the metacholine challenge were also included.

[7] = system: TNF-α mRNA expression in AMJ2-C11 cells; assay: TNF-α mRNA expression by RT-PCR in AMJ2-C11 cells; format: cell-based, mouse; conditions: SR-stimulated 24 h, 40 and 80 μM
Description: as §2

[8] = system: CD80 expression on AMJ2-C11 cells; assay: B7 (CD80) molecule expression on AMJ2-C11 cells; format: cell-based, mouse; conditions: 40 μM for 48 h
Description: The effects of nicotine and DMPP on B7 (CD80) molecule expression were tested in vitro. AMJ2-C11 cells (mouse alveolar macrophages, from the ATCC) were incubated with 40 μM nicotine or DMPP and stimulated with LPS (0.1 μg/ml) or SR antigen (50 μg/ml) for 48 hours.

[9] = system: allergic inflammation of the lungs in ovalbumin-sensitized mice; assay: Ovalbumin-sensitized mouse asthma model, BAL cell counts; format: in vivo, Balb/c mice
Description: Groups of Balb/c mice were sensitized by intra-peritoneal injection of 20 μg OVA protein (chicken egg albumin; Sigma-Aldrich) emulsified in 2 mg aluminum hydroxide in PBS. After 4 weeks, challenge doses of 1.5%/50 μl OVA were administered intranasally. The challenge was performed daily for 3 consecutive days and then the mice assessed for allergic inflammation of the lungs 24 h after the last aerosol exposure. Groups of mice were treated with various concentrations of DMPP during the challenge period. Broncho-alveolar lavage (BAL) was performed and the fluid centrifuged at 400 g to separate cells from liquid.
Ovalbumin-sensitized mice (n=8) were challenged with the allergen and simultaneously treated intra-nasally with increasing concentrations of ASM-002 (0.5 to 4 mg/kg/d) for 3 days. The number of cells recovered by broncho-alveolar lavage was used as a measure of lung inflammation.

C[N+]1(C)CCN(c2ccccc2)CC1 [DMPP, Dimethylphenylpiperazinium]
effect on SR-induced inflammation (BAL cells) ([1]; intra-nasal every 6 h, 24 h after SR, DMPP 0.5 mg/kg, nicotine 0.5 mg/kg, epibatidine 2 μg/kg): marked inhibitory effect
effect on SR-induced lung inflammation compared to the non-treated group ([1]; number of mice increased to 15): significant inhibition
BALF TNF levels (TNF): decreased significantly
less CD86 expressed than non-treated cells ([2]; SR-stimulated BAL cells): 50%
expression of CD86 relative to non-treated cells ([2]; SR-stimulated alveolar macrophages): about half of the expression
collagen A1 gene expression [3]: inhibits collagen A1 gene expression in a dose-dependent manner
reduction (drop) of IL-10 mRNA expression [4]: 87% and 90%
IL-4 mRNA expression (IL-4 mRNA expression): completely blocked
TNF release [5]: inhibits TNF release
inhibition of eosinophil transmigration (blood eosinophils): dose-related inhibition
% of augmentation of lung resistance compared to asthmatic mice ([6]; metacholine 0-32.5 mg/kg): reduced
PC200 (provocative challenge dose of 200% lung resistance augmentation) compared to asthmatic mice ([6]; p=0.04, n=6): significantly reduced
reduction of TNF-α mRNA expression [7]: up to 60%
percentage of expression of CD80 ([8]; LPS (0.1 μg/ml) stimulated, LPS alone 38%): 17%
percentage of expression of CD80 ([8]; SR antigen (50 μg/ml) stimulated, SR alone 35%): 20%
eosinophils and lymphocytes in BAL ([9]; first dose response, all groups (n=8; p<0.05)): significantly reduced
total cell counts in BAL ([9]; intra-peritoneal DMPP, 0.5 and 2.0 mg/kg doses, OVA challenged mice): significantly reduced
eosinophil and lymphocyte counts in BAL ([9]; second dose response, 0.1 and 0.5 mg/kg doses): significantly reduced
most effective dose for the anti-inflammatory effect ([9]; second dose response, IP): 0.5 mg/kg
